Laboratory results from ChEMBL document CHEMBL1649285, “In vivo efficacy of 1- and 2-gram human simulated prolonged infusions of doripenem against Pseudomonas aeruginosa” (Antimicrob Agents Chemother, 2009).
Converted amounts (≈) assume the structure as drawn.

Assays:
Format in all cases: functional
Pseudomonas aeruginosa [1] = experiment: Antimicrobial activity against Pseudomonas aeruginosa isolate 1036 by broth microdilution method
Pseudomonas aeruginosa [2] = experiment: Antimicrobial activity against Pseudomonas aeruginosa isolate 944 by broth microdilution method
Pseudomonas aeruginosa [3] = experiment: Antimicrobial activity against Pseudomonas aeruginosa isolate 1050 by broth microdilution method
Pseudomonas aeruginosa [4] = experiment: Antimicrobial activity against Pseudomonas aeruginosa isolate 1060 by broth microdilution method
Pseudomonas aeruginosa [5] = experiment: Antimicrobial activity against Pseudomonas aeruginosa isolate 22 by broth microdilution method
Pseudomonas aeruginosa [6] = experiment: Antimicrobial activity against Pseudomonas aeruginosa isolate 878 by broth microdilution method
Pseudomonas aeruginosa [7] = experiment: Antimicrobial activity against Pseudomonas aeruginosa isolate 896 by broth microdilution method
Pseudomonas aeruginosa [8] = experiment: Antimicrobial activity against Pseudomonas aeruginosa isolate 988 by broth microdilution method
Pseudomonas aeruginosa [9] = experiment: Antimicrobial activity against Pseudomonas aeruginosa isolate 1006 by broth microdilution method
Pseudomonas aeruginosa [10] = experiment: Antimicrobial activity against Pseudomonas aeruginosa isolate 856 by broth microdilution method
Pseudomonas aeruginosa [11] = experiment: Antimicrobial activity against Pseudomonas aeruginosa isolate 913 by broth microdilution method
Pseudomonas aeruginosa [12] = experiment: Antimicrobial activity against Pseudomonas aeruginosa isolate 927 by broth microdilution method
Pseudomonas aeruginosa [13] = experiment: Antimicrobial activity against Pseudomonas aeruginosa isolate 968 by broth microdilution method
Pseudomonas aeruginosa [14] = experiment: Antimicrobial activity against Pseudomonas aeruginosa isolate 971 by broth microdilution method
Pseudomonas aeruginosa [15] = experiment: Antimicrobial activity against Pseudomonas aeruginosa isolate 821 by broth microdilution method
Pseudomonas aeruginosa [16] = experiment: Antimicrobial activity against Pseudomonas aeruginosa isolate 1080 by broth microdilution method
Pseudomonas aeruginosa [17] = experiment: Antimicrobial activity against Pseudomonas aeruginosa isolate 1093 by broth microdilution method

`CO/N=C(\C(=O)N[C@@H]1C(=O)N2C(C(=O)[O-])=C(C[N+]3(C)CCCC3)CS[C@H]12)c1csc(N)n1` [CEFEPIME] was tested, and the MIC (Pseudomonas aeruginosa [1]) was 12 µg/mL (≈ 25 µM), the MIC (Pseudomonas aeruginosa [2]) was 16 µg/mL (≈ 33.3 µM) and the MIC (Pseudomonas aeruginosa [3]) was 4 µg/mL (≈ 8.32 µM). For the same compound, the MIC (Pseudomonas aeruginosa [4]) was 2 µg/mL (≈ 4.16 µM), the MIC (Pseudomonas aeruginosa [5]) was 16 µg/mL (≈ 33.3 µM) and the MIC (Pseudomonas aeruginosa [6]) was 24 µg/mL (≈ 49.9 µM). The MIC (Pseudomonas aeruginosa [7]) was 12 µg/mL (≈ 25 µM), the MIC (Pseudomonas aeruginosa [8]) was 12 µg/mL (≈ 25 µM) and the MIC (Pseudomonas aeruginosa [9]) was 4 µg/mL (≈ 8.32 µM). It also gave an MIC (Pseudomonas aeruginosa [10]) of over 256 µg/mL, an MIC (Pseudomonas aeruginosa [11]) of 12 µg/mL (≈ 25 µM) and an MIC (Pseudomonas aeruginosa [12]) of 24 µg/mL (≈ 49.9 µM). For the same compound, the MIC (Pseudomonas aeruginosa [13]) was 32 µg/mL (≈ 66.6 µM), the MIC (Pseudomonas aeruginosa [14]) was 32 µg/mL (≈ 66.6 µM) and the MIC (Pseudomonas aeruginosa [15]) was over 256 µg/mL. It also gave an MIC (Pseudomonas aeruginosa [16]) of 64 µg/mL (≈ 133 µM) and an MIC (Pseudomonas aeruginosa [17]) of 64 µg/mL (≈ 133 µM).
